The record followed here is publication PMC11995724, “Antibiotic target discovery by integrated phenotypic and activity-based profiling of electrophilic fragments” (Cell chemical biology, 2025).

Counter-ions that a name gives are not always drawn.

The series can be described thus: in vitro. To be noted: human, hek293t cells.
For `COc1ccc(C(C)(C)C)cc1NC(=O)CCl` [4-C07, N-(5-tert-butyl-2-methoxyphenyl)-2-chloroacetamide], the viability at 48 h, 25 µM worked out at 0.79%.

With `CC(Cl)C(=O)N1c2ccccc2NC(=O)C1(C)C` (stereo not shown) [4-C08, 4-(2-chloropropanoyl)-3,3-dimethyl-1,2,3,4-tetrahydroquinoxalin-2-one], the viability at 48 h, 25 µM was determined as 69.5%.

Regarding `CCCc1ccc(-c2csc(NC(=O)CCl)n2)cc1` [4-C09, 2-chloro-N-[4-(4-propylphenyl)-1,3-thiazol-2-yl]acetamide], the viability at 48 h, 25 µM came to 1.34%.

With `Cc1cccc(NC(=O)c2ccccc2NC(=O)CCl)c1` [4-C10, 2-(2-chloroacetamido)-N-(3-methylphenyl)benzamide], the viability at 48 h, 25 µM was -0.0841%.

As for `O=C(CCl)Nc1ccc(N=Nc2ccccc2)cc1` [4-C11, 2-chloro-N-[4-(2-phenyldiazen-1-yl)phenyl]acetamide], the viability at 48 h, 25 µM came out at 0.339%.

Consider `CC(Cl)C(=O)Nc1ccc(Cl)c(C(F)(F)F)c1` (stereo not shown) [4-C12, 2-chloro-N-[4-chloro-3-(trifluoromethyl)phenyl]propanamide], for which the viability at 48 h, 25 µM worked out at 51%.

Regarding `CSc1nsc(NC(=O)CCl)n1` [4-C13, 2-chloro-N-[3-(methylsulfanyl)-1,2,4-thiadiazol-5-yl]acetamide], the viability at 48 h, 25 µM was found to be 63.6%.

For `CC(Cl)C(=O)Nc1ccc(Cl)cc1F` (stereo not shown) [4-C14, 2-chloro-N-(4-chloro-2-fluorophenyl)propanamide], the viability at 48 h, 25 µM amounted to 58.6%.

Regarding `COc1ccc(N(CC(F)(F)F)C(=O)CCl)cc1` [4-C15, 2-chloro-N-(4-methoxyphenyl)-N-(2,2,2-trifluoroethyl)acetamide], the viability at 48 h, 25 µM was 0.659%.

Regarding `CC(C)c1ccc(-c2cc(NC(=O)CCl)n(-c3ccccc3)n2)cc1` [4-C16, 2-chloro-N-{1-phenyl-3-[4-(propan-2-yl)phenyl]-1H-pyrazol-5-yl}acetamide], the viability at 48 h, 25 µM is -0.013%.

Turning to `O=C(CCl)N(Cc1ccccc1)c1nc2c(s1)CCCC2` [4-C17, N-benzyl-2-chloro-N-(4,5,6,7-tetrahydro-1,3-benzothiazol-2-yl)acetamide], the viability at 48 h, 25 µM is 0.212%.

Turning to `COc1ccccc1N(CC(F)(F)F)C(=O)CCl` [4-C18, 2-chloro-N-(2-methoxyphenyl)-N-(2,2,2-trifluoroethyl)acetamide], the viability at 48 h, 25 µM worked out at 7.84%.

`O=C(CCl)N1CCN(S(=O)(=O)c2cccc([N+](=O)[O-])c2)CC1` [4-C19, 2-chloro-1-[4-(3-nitrobenzenesulfonyl)piperazin-1-yl]ethan-1-one]: the viability at 48 h, 25 µM amounted to 1.45%.

Consider `CCc1ccc(C(NC(=O)CCl)c2cccc(F)c2)cc1` (stereo not shown) [4-C20, 2-chloro-N-[(4-ethylphenyl)(3-fluorophenyl)methyl]acetamide], for which the viability at 48 h, 25 µM was 0.508%.

As to `O=C(CCl)Nc1ccc(C(=O)O)cc1[N+](=O)[O-]` [4-C21, 4-(2-chloroacetamido)-3-nitrobenzoic acid], the viability at 48 h, 25 µM was 63.3%.

On to `O=C(CCl)N1N=C(c2ccsc2)CC1c1cccc(F)c1` (stereo not shown) [4-C22, 2-chloro-1-[5-(3-fluorophenyl)-3-(thiophen-3-yl)-4,5-dihydro-1H-pyrazol-1-yl]ethan-1-one], for which the viability at 48 h, 25 µM is 0.063%.

Turning to `CN(CC(=O)Nc1ccc(Cl)cc1)C(=O)CCl` [4-D03, 2-chloro-N-{[(4-chlorophenyl)carbamoyl]methyl}-N-methylacetamide], the viability at 48 h, 25 µM was 0.468%.

For the compound `Cc1cccc(NC(=O)CCl)c1C` [4-D04, 2-chloro-N-(2,3-dimethylphenyl)acetamide], the viability at 48 h, 25 µM turned out to be 1.62%.

Take `CN(CC(=O)Nc1ccccc1Cl)C(=O)CCl` [4-D05, 2-chloro-N-{[(2-chlorophenyl)carbamoyl]methyl}-N-methylacetamide]: the viability at 48 h, 25 µM turned out to be 0.034%.

Turning to `CCn1c2ccccc2c2cc(NC(=O)CCl)ccc21` [4-D06, 2-chloro-N-(9-ethyl-9H-carbazol-3-yl)acetamide], the viability at 48 h, 25 µM was found to be 9.48%.

Take `CC1CCc2c(sc(NC(=O)CCl)c2C(=O)OC(C)C)C1` (stereo not shown) [4-D07, propan-2-yl 2-(2-chloroacetamido)-6-methyl-4,5,6,7-tetrahydro-1-benzothiophene-3-carboxylate]: the viability at 48 h, 25 µM worked out at 73.7%.

`O=C(CCl)Nc1cccc(S(=O)(=O)NC2=NCCCCC2)c1` [4-D08, N-{3-[(azepan-2-ylidene)sulfamoyl]phenyl}-2-chloroacetamide]: the viability at 48 h, 25 µM amounted to 1.32%.

For the compound `Cc1c(C#N)c(NC(=O)CCl)n(Cc2ccco2)c1C` [4-D09, 2-chloro-N-{3-cyano-1-[(furan-2-yl)methyl]-4,5-dimethyl-1H-pyrrol-2-yl}acetamide], the viability at 48 h, 25 µM was -0.0889%.

Turning to `Cc1ccc(Cl)c(NC(=O)CCl)c1Cl` [4-D10, 2-chloro-N-(2,6-dichloro-3-methylphenyl)acetamide], the viability at 48 h, 25 µM was 1.7%.

`CC(Cl)C(=O)Nc1ccccc1Cl` (stereo not shown) [4-D11, 2-chloro-N-(2-chlorophenyl)propanamide]: the viability at 48 h, 25 µM amounted to 97.8%.

Consider `CC(C)CN(C(=O)CCl)C1CCS(=O)(=O)C1` (stereo not shown) [4-D12, 2-chloro-N-(1,1-dioxo-1lambda6-thiolan-3-yl)-N-(2-methylpropyl)acetamide], for which the viability at 48 h, 25 µM worked out at 2.44%.

Turning to `CC(C)c1cc(O)nc(N2CCC(NC(=O)CCl)C2)n1` (stereo not shown) [4-D13, 2-chloro-N-{1-[4-hydroxy-6-(propan-2-yl)pyrimidin-2-yl]pyrrolidin-3-yl}acetamide], the viability at 48 h, 25 µM came to 2.02%.

As to `CC(Cl)C(=O)NCCc1cccs1` (stereo not shown) [4-D14, 2-chloro-N-[2-(thiophen-2-yl)ethyl]propanamide], the viability at 48 h, 25 µM came to 111%.

For `COc1ccc(NC(=O)CCl)cc1S(=O)(=O)N1CCOCC1` [4-D15, 2-chloro-N-[4-methoxy-3-(morpholine-4-sulfonyl)phenyl]acetamide], the viability at 48 h, 25 µM is 0.627%.

Regarding `Cc1ccc(NC(=O)CN2CCN(C(=O)CCl)CC2)cc1` [4-D16, 2-[4-(2-chloroacetyl)piperazin-1-yl]-N-(4-methylphenyl)acetamide hydrochloride], the viability at 48 h, 25 µM amounted to 0.854%.

For the compound `CC(Cl)C(=O)Nc1cc(Cl)cc(Cl)c1` (stereo not shown) [4-D17, 2-chloro-N-(3,5-dichlorophenyl)propanamide], the viability at 48 h, 25 µM was 67.8%.

Take `O=C(CCl)NCC(=O)Nc1ccc(F)c(F)c1F` [4-D18, 2-chloro-N-{[(2,3,4-trifluorophenyl)carbamoyl]methyl}acetamide]: the viability at 48 h, 25 µM came out at 2.12%.

In the case of `Cc1cccc(Cc2cnc(NC(=O)C(C)Cl)s2)c1` (stereo not shown) [4-D19, 2-chloro-N-{5-[(3-methylphenyl)methyl]-1,3-thiazol-2-yl}propanamide], the viability at 48 h, 25 µM is 74.1%.

Consider `CC(Cl)C(=O)NCC(=O)Nc1ccc(F)c(F)c1F` (stereo not shown) [4-D20, 2-chloro-N-{[(2,3,4-trifluorophenyl)carbamoyl]methyl}propanamide], for which the viability at 48 h, 25 µM worked out at 118%.

For the compound `Cc1cccc(NC(=O)NC(=O)CCl)c1C` [4-D21, 3-(2-chloroacetyl)-1-(2,3-dimethylphenyl)urea], the viability at 48 h, 25 µM is 0.759%.

Consider `O=C(CCl)NCc1cccc(NC(=O)C2CC2)c1` [4-D22, N-{3-[(2-chloroacetamido)methyl]phenyl}cyclopropanecarboxamide], for which the viability at 48 h, 25 µM was 1.24%.

With `O=C(CCl)Nc1ccc(Cl)cc1F` [4-E03, 2-chloro-N-(4-chloro-2-fluorophenyl)acetamide], the viability at 48 h, 25 µM came out at 0.433%.
